# Patent publication US7662842B2, “Thiazolidinone amides, thiazolidine carboxylic acid amides, and serine amides, including polyamine conjugates thereof, as selective anti-cancer agents” (Ohio State Univesity Research Foundation, priority 2003, dated 2010)
# Tests used:
# [1] = system: human dermal fibroblasts; assay: Sulforhodamine B assay, fibroblast control cells; format: cell-based; settings: Homo sapiens, Fibroblast, 48 h, SRB assay, 48 h incubation
# [2] = system: SKMEL-188 and WM-164 cell lines; assay: SRB assay, statements on both melanoma cell lines; format: cell-based
# Protocol: Louis, Mo.). WM-164 cells (gift of Dr. Meenhard Herlyn, Wistar Inst., Philadelphia, Pa.) and human dermal fibroblasts (Cascade Biologics, Inc., Portland, Oreg.) were cultured in DMEM medium (Cellgro Mediatech, Inc.) supplemented with 5% fetal bovine serum, 1% antibiotic.antimycotic mixture and bovine insulin ([…], Sigma-Aldrich, Inc.). Human dermal fibroblasts were used as a control to examine the effects of compounds on stromal environment. Thus, the effect of the various compounds on melanoma cells versus fibroblasts would document their potential selectivity. Sulforhodamine B Assay: Cells were seeded into 96-well plates at 5000 cells/well. After 12 hours, media were changed and serial dilutions of compounds were added. Cells were incubated with each compound for 48 hours. Fresh media containing the test compound were changed ever 24 hours. Thereafter, total cell protein corresponding to cell numbers (both viable and non-viable cells) were measured using the sulforhodamine B (SRB) assay according to manufacturer's protocol (Sigma-Aldrich, Inc.) (Rubinstein et al., “Comparison of in vitro Anticancer Drug-screening Data Generated with a Tetrazolium Assay Versus a Protein Assay Against a Diverse Panel of Human Tumor Cell Lines,” J. Natl. Cancer Inst. 82:1113-1118 (1990); Dothager et al., “Synthesis and Identification of Small Molecules that Potently Induce Apoptosis in Melanoma Cells Through GI Cell Cycle Arrest,” J. Am. Chem. Soc. 127:8686-8696 (2005), each of which is hereby incorporated by reference in its entirety). Briefly, cells were fixed with trichloracetic acid, washed and incubated with sulforhodamine B for 30 minutes. After another wash, dye incorporated into the cells was solubilized and measured using a plate reader at 565 nm. Statistical Analysis: Data is presented as mean±SEM (n=6-8). […] Statistical analyses were performed with Student's t-test (*p<0.05; **p<0.005). […] DTIC and Taxol were assayed in the same way for comparison and served as internal quality controls in the different batches of assay. For comparison, the activities of 5R and 5S were measured.
structure (smiles),measurement,setting,value
"CCCCCCCCCCCCCCNC(=O)[C@@H]1CSC(c2ccccc2)N1.Cl (mixture of isomers) [Compound 4, (2RS, 4R)-2-Phenylthiazolidine-4-carboxylic acid tetradecylamide Hydrochloride]",IC50,[1],6.1 µM
same,IC50,"[2]; 48 h, read-out: IC50 against both melanoma cell lines",~500 nM
same,Selectivity against both neoplastic cell lines (versus fibroblasts),[2]; melanoma cells versus fibroblasts,over 10 fold
